The assay has as its target T1, Full length human recombinant HDAC6 protein (Homo sapiens, UniProt Q9UBN7).
T1 sequence (Q9UBN7 1-1215): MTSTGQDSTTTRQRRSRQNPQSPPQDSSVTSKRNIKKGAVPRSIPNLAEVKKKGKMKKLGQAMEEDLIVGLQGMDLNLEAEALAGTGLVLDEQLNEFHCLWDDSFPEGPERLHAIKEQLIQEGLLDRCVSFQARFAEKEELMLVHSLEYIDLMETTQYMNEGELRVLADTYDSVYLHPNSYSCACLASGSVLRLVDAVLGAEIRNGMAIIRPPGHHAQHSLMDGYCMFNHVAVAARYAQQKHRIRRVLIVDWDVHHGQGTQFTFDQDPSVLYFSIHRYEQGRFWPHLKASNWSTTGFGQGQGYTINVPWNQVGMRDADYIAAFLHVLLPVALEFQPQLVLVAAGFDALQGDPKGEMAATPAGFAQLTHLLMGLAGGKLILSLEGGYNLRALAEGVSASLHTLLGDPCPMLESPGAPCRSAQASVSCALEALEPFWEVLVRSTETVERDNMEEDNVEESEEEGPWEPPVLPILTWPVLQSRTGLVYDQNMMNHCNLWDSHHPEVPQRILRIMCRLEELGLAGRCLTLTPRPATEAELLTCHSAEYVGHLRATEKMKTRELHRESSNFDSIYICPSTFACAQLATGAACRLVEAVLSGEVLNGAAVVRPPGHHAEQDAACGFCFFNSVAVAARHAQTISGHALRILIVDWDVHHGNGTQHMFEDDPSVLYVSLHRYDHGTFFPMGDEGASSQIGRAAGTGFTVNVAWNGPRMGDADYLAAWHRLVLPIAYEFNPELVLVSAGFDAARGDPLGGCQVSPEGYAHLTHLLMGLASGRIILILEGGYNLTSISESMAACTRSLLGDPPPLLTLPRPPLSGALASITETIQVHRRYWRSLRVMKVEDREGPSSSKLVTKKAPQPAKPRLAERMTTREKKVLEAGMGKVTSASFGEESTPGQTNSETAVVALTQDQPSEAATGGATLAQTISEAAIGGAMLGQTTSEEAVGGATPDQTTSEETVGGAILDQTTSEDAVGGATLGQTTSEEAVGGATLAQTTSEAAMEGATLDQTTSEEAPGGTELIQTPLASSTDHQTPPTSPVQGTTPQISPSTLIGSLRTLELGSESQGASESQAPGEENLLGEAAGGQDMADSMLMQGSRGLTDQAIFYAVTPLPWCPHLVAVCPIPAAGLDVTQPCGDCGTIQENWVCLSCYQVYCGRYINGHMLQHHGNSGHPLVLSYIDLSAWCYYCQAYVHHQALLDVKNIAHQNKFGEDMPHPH
The assay can be described thus: In vitro histone deacetylase assay: enzymatic HDAC6 electrophoretic mobility shift assay. The assay is classed as biochemical. As to conditions: 1 nM enzyme, 2 μM peptide substrate RHKK(Ac)-NH2, 25° C., 12 concentrations; read-out: Inhibitory Concentration (IC50) Values against HDAC6, Activity Range.

Consider `C[C@H]1OCCC[C@@H]1C(=O)N1Cc2ccc(C(=O)NO)cc2OC[C@@H]1C` [(S)-N-hydroxy-3-methyl-4-((2R,3S)-2-methyltetrahydro-2H-pyran-3-carbonyl)-2,3,4,5-tetrahydrobenzo[f][1,4]oxazepine-8-carboxamide], for which the IC50 is ≤ 100 nM.

As to `C[C@H]1COc2cc(C(=O)NO)ccc2CN1C(=O)[C@@H]1CCOC(C)(C)C1` [(S)-4-((R)-2,2-dimethyltetrahydro-2H-pyran-4-carbonyl)-N-hydroxy-3-methyl-2,3,4,5-tetrahydrobenzo[f][1,4]oxazepine-8-carboxamide], the IC50 was ≤ 100 nM.

For `COc1ccc(C(=O)N2CC(=O)Nc3ccc(C(=O)NO)cc3C2)cc1` [N-hydroxy-4-(4-methoxybenzoyl)-2-oxo-2,3,4,5-tetrahydro-1H-benzo[e][1,4]diazepine-7-carboxamide], the IC50 was > 500 nM.

For the molecule `C[C@H]1COc2cc(C(=O)NO)ccc2CN1C(=O)C1CC2CCC(C1)O2` (stereo partly drawn) [(3S)-4-(8-oxabicyclo[3.2.1]octane-3-carbonyl)-N-hydroxy-3-methyl-2,3,4,5-tetrahydrobenzo[f][1,4]oxazepine-8-carboxamide], the IC50 was ≤ 100 nM.

Turning to `CCC1(C(=O)N2Cc3ccc(C(=O)NO)cc3OC[C@@H]2C)COC1` [(S)-4-(3-ethyloxetane-3-carbonyl)-N-hydroxy-3-methyl-2,3,4,5-tetrahydrobenzo[f][1,4]oxazepine-8-carboxamide], the IC50 was ≤ 100 nM.

For `CC(C)(C(=O)N1CCOc2cc(C(=O)NO)ccc2C1)c1ccc2c(c1)OCCO2` [4-(2-(2,3-dihydrobenzo[b][1,4]dioxin-6-yl)-2-methylpropanoyl)-N-hydroxy-2,3,4,5-tetrahydrobenzo[f][1,4]oxazepine-8-carboxamide], the IC50 was in the range of 100 to 500 nM.

Take `COCC1(C(=O)N2CCOc3cc(C(=O)NO)ccc3[C@@H]2C)CCOCC1` [(S)-N-hydroxy-4-(4-(methoxymethyl)tetrahydro-2H-pyran-4-carbonyl)-5-methyl-2,3,4,5-tetrahydrobenzo[f][1,4]oxazepine-8-carboxamide]: the IC50 was ≤ 100 nM.

On to `CC1CC(C(=O)N2Cc3ccc(C(=O)NO)cc3OC[C@@H]2C)CC(C)O1` (stereo partly drawn) [(3S)-4-(2,6-dimethyltetrahydro-2H-pyran-4-carbonyl)-N-hydroxy-3-methyl-2,3,4,5-tetrahydrobenzo[f][1,4]oxazepine-8-carboxamide], for which the IC50 is ≤ 100 nM.

With `O=C(NO)c1ccc2c(c1)OCCN(C(=O)C1(c3ccccc3)CCOCC1)C2` [N-hydroxy-4-(4-phenyltetrahydro-2H-pyran-4-carbonyl)-2,3,4,5-tetrahydrobenzo[f][1,4]oxazepine-8-carboxamide], the IC50 lay within 100 to 500 nM.

In the case of `CN(C)C(=O)C1CN(C(=O)C2CCOCC2)Cc2ccc(C(=O)NO)cc2O1` (centres unmarked) [N8-hydroxy-N2,N2-dimethyl-4-(tetrahydro-2H-pyran-4-carbonyl)-2,3,4,5-tetrahydrobenzo[f][1,4]oxazepine-2,8-dicarboxamide], the IC50 is 100 to 500 nM.

For `CC(C)C(O)(C(=O)N1CCOc2cc(C(=O)NO)ccc2C1)c1ccccc1` (centres unmarked) [N-hydroxy-4-(2-hydroxy-3-methyl-2-phenylbutanoyl)-2,3,4,5-tetrahydrobenzo[f][1,4]oxazepine-8-carboxamide], the IC50 was > 500 nM.

As to `O=C(NO)c1ccc2c(c1)OCCN(C(=O)C1(Cn3ccnc3)CC1)C2` [4-(1-((1H-imidazol-1-yl)methyl)cyclopropane-1-carbonyl)-N-hydroxy-2,3,4,5-tetrahydrobenzo[f][1,4]oxazepine-8-carboxamide], the IC50 is ≤ 100 nM.

With `CC1(C(=O)N2CCOc3cc(C(=O)NO)ccc3C2)CCCCC1` [N-hydroxy-4-(1-methylcyclohexane-1-carbonyl)-2,3,4,5-tetrahydrobenzo[f][1,4]oxazepine-8-carboxamide], the IC50 was ≤ 100 nM.

On to `CC[C@H]1COc2cc(C(=O)NO)ccc2CN1C(=O)C1CCOCC1` [(S)-3-ethyl-N-hydroxy-4-(tetrahydro-2H-pyran-4-carbonyl)-2,3,4,5-tetrahydrobenzo[f][1,4]oxazepine-8-carboxamide], for which the IC50 is ≤ 100 nM.
